In paper PMC8924211 (Nature Communications, 2022):
Where a chain is given by its changes, count along the chain named.

How the values were obtained:
Assay in all cases: Calcium assay, HEK293/Gα16 cells, GAL2R mutants
Type in all cases: cell-based
GAL2R mutants [1] = target: T1, GAL2R mutants (Homo sapiens, UniProt O43603, Q82A); conditions: GAL2R Q822.61A
T1 construct: expressed in transfected cells; host or cells: HEK293
T1 sequence (O43603 1-387 Q82A): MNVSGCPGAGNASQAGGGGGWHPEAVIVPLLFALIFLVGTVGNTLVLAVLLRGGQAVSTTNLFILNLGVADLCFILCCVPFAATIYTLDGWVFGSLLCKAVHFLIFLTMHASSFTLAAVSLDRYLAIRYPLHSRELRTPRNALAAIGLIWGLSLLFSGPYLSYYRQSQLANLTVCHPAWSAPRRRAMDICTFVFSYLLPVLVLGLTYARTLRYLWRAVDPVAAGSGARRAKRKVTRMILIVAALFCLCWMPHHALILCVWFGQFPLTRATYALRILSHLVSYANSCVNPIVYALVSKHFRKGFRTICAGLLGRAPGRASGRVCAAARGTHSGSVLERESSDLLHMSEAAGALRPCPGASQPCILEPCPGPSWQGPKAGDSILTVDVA

GAL2R mutants [2] = target: T2, GAL2R mutants (Homo sapiens, UniProt O43603, F264A); conditions: GAL2R F264ECL3A
T2 construct: expressed in transfected cells; host or cells: HEK293
T2 sequence (O43603 1-387 F264A): T1 sequence (O43603 1-387 Q82A) with A82Q, F264A

GAL2R mutants [3] = target: T3, GAL2R mutants (Homo sapiens, UniProt O43603, L172A); conditions: GAL2R L172ECL2A
T3 construct: expressed in transfected cells; host or cells: HEK293
T3 sequence (O43603 1-387 L172A): T1 sequence (O43603 1-387 Q82A) with A82Q, L172A

GAL2R mutants [4] = target: T4, GAL2R mutants (Homo sapiens, UniProt O43603, Y271A); conditions: GAL2R Y2717.32A
T4 construct: expressed in transfected cells; host or cells: HEK293
T4 sequence (O43603 1-387 Y271A): T1 sequence (O43603 1-387 Q82A) with A82Q, Y271A

GAL2R mutants [5] = target: T5, GAL2R mutants (Homo sapiens, UniProt O43603, L169A); conditions: GAL2R L169ECL2A
T5 construct: expressed in transfected cells; host or cells: HEK293
T5 sequence (O43603 1-387 L169A): T1 sequence (O43603 1-387 Q82A) with A82Q, L169A

[6] = response of 100 μM spexin compared to WT, mean ± S.E.M.

Emax (GAL2R mutants [1]; spexin, replicate 1): no response
Emax (GAL2R mutants [1]; spexin, replicate 2): no response
Emax (GAL2R mutants [1]; spexin, replicate 3): no response
Emax (GAL2R mutants [2]; [6]): 40.26±1.3%
Emax (GAL2R mutants [2]; spexin, replicate 1): 42.8699%
Emax (GAL2R mutants [2]; spexin, replicate 2): 39.5775%
Emax (GAL2R mutants [2]; spexin, replicate 3): 38.3476%
Emax (GAL2R mutants [3]; [6]): 33.56±1.2%
EC50 (GAL2R mutants [3]; spexin, replicate 1): 3.125 µM
Emax (GAL2R mutants [3]; spexin, replicate 1): 31.8616%
EC50 (GAL2R mutants [3]; spexin, replicate 2): 10.79 µM
Emax (GAL2R mutants [3]; spexin, replicate 2): 33.0538%
EC50 (GAL2R mutants [3]; spexin, replicate 3): 12.08 µM
Emax (GAL2R mutants [3]; spexin, replicate 3): 35.752%
Emax (GAL2R mutants [4]; [6]): 22.23±2.2%
EC50 (GAL2R mutants [4]; spexin, replicate 1): 5.958 µM
Emax (GAL2R mutants [4]; spexin, replicate 1): 23.9745%
EC50 (GAL2R mutants [4]; spexin, replicate 2): 1.581 µM
Emax (GAL2R mutants [4]; spexin, replicate 2): 17.9395%
EC50 (GAL2R mutants [4]; spexin, replicate 3): 0.7518 µM
Emax (GAL2R mutants [4]; spexin, replicate 3): 24.7776%
Emax (GAL2R mutants [5]; [6]): 94.58±11.1%
EC50 (GAL2R mutants [5]; spexin, replicate 1): 7.173 µM
Emax (GAL2R mutants [5]; spexin, replicate 1): 77.1819%
EC50 (GAL2R mutants [5]; spexin, replicate 2): 5.137 µM
Emax (GAL2R mutants [5]; spexin, replicate 2): 91.205%
Emax (GAL2R mutants [5]; spexin, replicate 3): 115.35%
Substance: spexin
Emax (GAL2R mutants [1]; response of 100 μM spexin compared to WT): NR (NR, no response, refers to response < 10% compared to WT receptor (spexin at 100 μM))
